Measurements from patent publication US4409210A, “Antibiotic compound” (priority 1982, dated 1983).
Converted amounts (≈) assume the structure as drawn.

What was measured:
Type in all cases: cell-based
[1] = tested on: Bacteroides ovatus A22400; experiment: MIC, serial two-fold dilution method (anaerobic); conditions: Bacteroides ovatus A22400; GAM agar medium; inoculum 10^7-10^8; read-out: minimum inhibitory concentration (MIC)
[2] = tested on: Bacteroides fragilis A20928-1; experiment: MIC, serial two-fold dilution method (anaerobic); conditions: A209281; Bacteroides fragilis A20928-1; GAM agar medium; inoculum 10^7-10^8; read-out: minimum inhibitory concentration (MIC)
[3] = tested on: Clostridium perfringens A22787; experiment: microbe, parasite or virus in culture; conditions: Clostridium perfringens, A22787, read-out: minimum inhibitory concentration (MIC)
[4] = tested on: Peptostreptococcus intermedius A21881; experiment: MIC, serial two-fold dilution method (anaerobic); conditions: Peptostreptococcus intermedius A21881; GAM agar medium; inoculum 10^7-10^8; read-out: minimum inhibitory concentration (MIC)
[5] = tested on: Veillonella alcalescens A21914-1; experiment: MIC, serial two-fold dilution method (anaerobic); conditions: Veillonella parvula, A219141; Veillonella alcalescens A21914-1; GAM agar medium; inoculum 10^7-10^8; read-out: minimum inhibitory concentration (MIC)
[6] = tested on: Veillonella parvula A20010; experiment: MIC, serial two-fold dilution method (anaerobic); conditions: Veillonella parvula A20010; GAM agar medium; inoculum 10^7-10^8; read-out: minimum inhibitory concentration (MIC)
[7] = tested on: Peptostreptococcus anaerobius A21905; experiment: MIC, serial two-fold dilution method (anaerobic); conditions: Peptostreptococcus anaerobius A21905; GAM agar medium; inoculum 10^7-10^8; read-out: minimum inhibitory concentration (MIC)
[8] = tested on: Fusobacterium nucleatum A21906; experiment: MIC, serial two-fold dilution method (anaerobic); conditions: Fusobacterium nucleatum A21906; GAM agar medium; inoculum 10^7-10^8; read-out: minimum inhibitory concentration (MIC)
[9] = tested on: Clostridium cylindrosporum A9562; experiment: MIC, serial two-fold dilution method (anaerobic); conditions: Clostridium cylindrosporum A9562; GAM agar medium; inoculum 10^7-10^8; read-out: minimum inhibitory concentration (MIC)
[10] = tested on: Bacteroides fragilis A22053; experiment: MIC, serial two-fold dilution method (anaerobic); conditions: Bacteroides fragilis A22053; GAM agar medium; inoculum 10^7-10^8; read-out: minimum inhibitory concentration (MIC)
[11] = tested on: Bacteroides fragilis A22695; experiment: MIC, serial two-fold dilution method (anaerobic); conditions: Bacteroides fragilis A22695; GAM agar medium; inoculum 10^7-10^8; read-out: minimum inhibitory concentration (MIC)
[12] = tested on: Propionibacterium acnes A21953; experiment: MIC, serial two-fold dilution method (anaerobic); conditions: Cutibacterium acnes; Propionibacterium acnes A21953; GAM agar medium; inoculum 10^7-10^8; read-out: minimum inhibitory concentration (MIC)
[13] = tested on: Clostridium perfringens A9635; experiment: microbe, parasite or virus in culture; conditions: Clostridium perfringens, A9635, read-out: minimum inhibitory concentration (MIC)
[14] = tested on: Bacteroides fragilis A21900; experiment: MIC, serial two-fold dilution method (anaerobic); conditions: Bacteroides fragilis A21900; GAM agar medium; inoculum 10^7-10^8; read-out: minimum inhibitory concentration (MIC)
[15] = tested on: Bacteroides fragilis CUH-9; experiment: MIC, serial two-fold dilution method (anaerobic); conditions: CUH9; Bacteroides fragilis CUH-9; GAM agar medium; inoculum 10^7-10^8; read-out: minimum inhibitory concentration (MIC)
[16] = tested on: Peptococcus magnas A21676; experiment: MIC, serial two-fold dilution method (anaerobic); conditions: Peptococcus magnas A21676; GAM agar medium; inoculum 10^7-10^8; read-out: minimum inhibitory concentration (MIC)
[17] = tested on: Bacteroides fragilis A20929; experiment: MIC, serial two-fold dilution method (anaerobic); conditions: Bacteroides fragilis A20929; GAM agar medium; inoculum 10^7-10^8; read-out: minimum inhibitory concentration (MIC)
[18] = tested on: Clostridium ramosum A21970; experiment: MIC, serial two-fold dilution method (anaerobic); conditions: Thomasclavelia ramosa; Clostridium ramosum A21970; GAM agar medium; inoculum 10^7-10^8; read-out: minimum inhibitory concentration (MIC)
[19] = tested on: Fusobacterium varium ATCC 8501; experiment: MIC, serial two-fold dilution method (anaerobic); conditions: ATCC8501; Fusobacterium varium ATCC 8501; GAM agar medium; inoculum 10^7-10^8; read-out: minimum inhibitory concentration (MIC)
[20] = tested on: Bacteroides fragilis A22533; experiment: MIC, serial two-fold dilution method (anaerobic); conditions: Bacteroides fragilis A22533; GAM agar medium; inoculum 10^7-10^8; read-out: minimum inhibitory concentration (MIC)
[21] = tested on: Propionibacterium acnes A22650; experiment: MIC, serial two-fold dilution method (anaerobic); conditions: Cutibacterium acnes; Propionibacterium acnes A22650; GAM agar medium; inoculum 10^7-10^8; read-out: minimum inhibitory concentration (MIC)
[22] = tested on: Bacteroides fragilis A20926; experiment: MIC, serial two-fold dilution method (anaerobic); conditions: Bacteroides fragilis A20926; GAM agar medium; inoculum 10^7-10^8; read-out: minimum inhibitory concentration (MIC)
[23] = tested on: Bacteroides fragilis CUH-24; experiment: MIC, serial two-fold dilution method (anaerobic); conditions: CUH24; Bacteroides fragilis CUH-24; GAM agar medium; inoculum 10^7-10^8; read-out: minimum inhibitory concentration (MIC)
[24] = tested on: Fusobacterium necrophorum A20013; experiment: MIC, serial two-fold dilution method (anaerobic); conditions: Fusobacterium necrophorum A20013; GAM agar medium; inoculum 10^7-10^8; read-out: minimum inhibitory concentration (MIC)
[25] = tested on: Clostridium acidiurici A9560; experiment: MIC, serial two-fold dilution method (anaerobic); conditions: Gottschalkia acidurici; Clostridium acidiurici A9560; GAM agar medium; inoculum 10^7-10^8; read-out: minimum inhibitory concentration (MIC)
[26] = tested on: Clostridium chauvoei A9561; experiment: MIC, serial two-fold dilution method (anaerobic); conditions: Clostridium chauvoei A9561; GAM agar medium; inoculum 10^7-10^8; read-out: minimum inhibitory concentration (MIC)
Method: (§1) The minimum inhibitory concentration (MIC) of Bu-2517 was determined for a variety of aerobic and anaerobic bacteria by the serial two-fold dilution method using a multi-inoculating apparatus. Mueller-Hinton agar was generally used for aerobic bacteria, GC medium (Eiken) for fastidious aerobic organisms such as streptococci, Neisseria and Haemophilus species, and GAM agar medium (Nissui) for anaerobic bacteria. The inoculum size was adjusted to 10^6 CFU/ml for streptococci, Neisseria and Haemophilus species, 10^4 for other aerobic bacteria and 10^7 -10^8 for all anaerobic organisms. Amphomycin, ampicillin, chloramphenicol, clindamycin, erthromycin, kanamycin and vancomycin were used as reference antibiotics.

[27] = tested on: Clostridium septicum A21869; experiment: MIC, serial two-fold dilution method (anaerobic); conditions: Clostridium septicum A21869; GAM agar medium; inoculum 10^7-10^8; read-out: minimum inhibitory concentration (MIC)
Method: as §1

[28] = tested on: Clostridium difficile A21675; experiment: MIC, serial two-fold dilution method (anaerobic); conditions: Clostridioides difficile; Clostridium difficile A21675; GAM agar medium; inoculum 10^7-10^8; read-out: minimum inhibitory concentration (MIC)
Method: as §1

[29] = tested on: Clostridium difficile A21972; experiment: MIC, serial two-fold dilution method (anaerobic); conditions: Clostridioides difficile; Clostridium difficile A21972; GAM agar medium; inoculum 10^7-10^8; read-out: minimum inhibitory concentration (MIC)
Method: as §1

[30] = tested on: Propionibacterium acnes A21933; experiment: MIC, serial two-fold dilution method (anaerobic); conditions: Cutibacterium acnes; Propionibacterium acnes A21933; GAM agar medium; inoculum 10^7-10^8; read-out: minimum inhibitory concentration (MIC)

## CCC[C@@H]1C[C@@H](C(=O)N[C@@H]([C@H]2O[C@H](SC)[C@H](O)[C@@H](O)[C@H]2O)[C@H](C)Cl)N(C)C1 [Clindamycin]
[1]
  MIC: 6.3 µg/mL (≈ 14.8 µM)
[2]
  MIC: 0.025 µg/mL (≈ 0.0588 µM)
[3]
  MIC: 50 µg/mL (≈ 118 µM)
[4]
  MIC: 0.2 µg/mL (≈ 0.471 µM)
[5]
  MIC: 0.013 µg/mL (≈ 0.0306 µM)
[6]
  MIC: 0.4 µg/mL (≈ 0.941 µM)
[7]
  MIC: 0.2 µg/mL (≈ 0.471 µM)
[8]
  MIC: 1.6 µg/mL (≈ 3.76 µM)
[9]
  MIC: 0.8 µg/mL (≈ 1.88 µM)
[10]
  MIC: 0.2 µg/mL (≈ 0.471 µM)
[11]
  MIC: 0.1 µg/mL (≈ 0.235 µM)
[12]
  MIC: 0.8 µg/mL (≈ 1.88 µM)
[13]
  MIC: 0.025 µg/mL (≈ 0.0588 µM)
[14]
  MIC: 1.6 µg/mL (≈ 3.76 µM)
[15]
  MIC: 50 µg/mL (≈ 118 µM)
[16]
  MIC: 0.05 µg/mL (≈ 0.118 µM)
[17]
  MIC: 3.1 µg/mL (≈ 7.29 µM)
[18]
  MIC: 0.025 µg/mL (≈ 0.0588 µM)
[19]
  MIC: 1.6 µg/mL (≈ 3.76 µM)
[20]
  MIC: 0.025 µg/mL (≈ 0.0588 µM)
[21]
  MIC: 0.1 µg/mL (≈ 0.235 µM)
[22]
  MIC: 0.025 µg/mL (≈ 0.0588 µM)
[23]
  MIC: > 100 µg/mL
[24]
  MIC: 12.5 µg/mL (≈ 29.4 µM)
[25]
  MIC: 0.8 µg/mL (≈ 1.88 µM)
[26]
  MIC: 0.025 µg/mL (≈ 0.0588 µM)
[27]
  MIC: 0.8 µg/mL (≈ 1.88 µM)
[28]
  MIC: 100 µg/mL (≈ 235 µM)
[29]
  MIC: 0.025 µg/mL (≈ 0.0588 µM)
[30]
  MIC: 0.8 µg/mL (≈ 1.88 µM)
